Source: patent US20040232089A1, “Biocidal compounds for treating water” (VANETTA S.p.A., priority 2003, published 2004)

Assays:
[1] = tested on: Staphylococcu aureus ATCC 25923; assay: Microdilution broth MIC/MBC; assay type: cell-based, Staphylococcus aureus; settings: 24 h at 25° C., dark
Procedure: (§1) b) Serial dilution test: the antibiotic activity is determined quantitatively by using the known sensitivity of a test strain towards an antibiotic which is expressed numerically as the minimal inhibitory concentration (MIC) and the minimal bactericidal concentration (MBC).
(§2) Procedure: serial dilutions of the antibiotic to be tested are pipetted into the antibiotic broth, this is then inoculated with a defined quantity of the relevant test strain (FIG. 4).
(§3) The Minimum Inhibitory Concentration (MIC) was defined as the lowest concentration of antibiotic which prevented visual turbidity after incubation.
The Minimum Bactericidal Concentration (MBC) is defined as the lowest concentration of an antibiotic killing the majority of a bacterial inoculum (99.9%, equivalent to a thousand-fold reduction of the inoculum). Method: Following a broth dilution MIC test, from each tube in the dilution series a defined volume (20 μL) is spread onto plates without antibiotics. […] The plates were incubate overnight (longer for slow growing bacteria) and then counted the number of colonies growing from each of the test tubes. The number of colonies corresponding to a thousand-fold reduction (MBC) can be calculated if the colony count of the start inoculum is known. […]
Antimicrobial assays were performed in dark, and results were read after 24 h of incubation at 25° C. […]

[2] = tested on: Bacillus licheniformis NCIMB 1525; assay: Microdilution broth MIC/MBC; assay type: cell-based; settings: 24 h at 25° C., dark
Procedure: as §1, §2, §3
(§4) The Minimum Bactericidal Concentration (MBC) is defined as the lowest concentration of an antibiotic killing the majority of a bacterial inoculum (99.9%, equivalent to a thousand-fold reduction of the inoculum). Method: Following a broth dilution MIC test, from each tube in the dilution series a defined volume (20 μL) is spread onto plates without antibiotics. To minimize the carry-over effect of antibiotic from the test tubes, let the drop “dry” before the inoculum is spread over the surface (a section of the agar plate). The plates were incubate overnight (longer for slow growing bacteria) and then counted the number of colonies growing from each of the test tubes. The number of colonies corresponding to a thousand-fold reduction (MBC) can be calculated if the colony count of the start inoculum is known.
(§5) The microdilution broth method was used to evaluate the MIC and the MBC against 15 aerobic bacteria isolated from culture collection and seawater. Antimicrobial dilutions were performed using Mueller Hinton Broth supplemented with divalent cations. The tested product was dissolved in the medium to obtain a final range concentration between 0,12 to 64 mg/l.
(§6) Antimicrobial assays were performed in dark, and results were read after 24 h of incubation at 25° C. Each test towards the same indicator strain was performed in three replicates.
(§7) The assayed strains were environment isolates identified by an internal number or standard strains identified by the ATCC or NCIMB accession number.

[3] = tested on: Escherichia coli ATCC 25922; assay: Microdilution broth MIC/MBC; assay type: cell-based; settings: 24 h at 25° C., dark
Procedure: as §1, §2, §3, §4, §5, §6, §7

[4] = tested on: Pseudomonas elongata NCIMB 1141; assay: Microdilution broth MIC/MBC; assay type: cell-based; settings: 24 h at 25° C., dark
Procedure: as §1, §2, §3, §4, §5, §6, §7

Vibrio sp. AD18 = assay: Microdilution broth MIC/MBC; assay type: cell-based; settings: 24 h at 25° C., dark
Procedure: as §1, §2, §3, §4, §5, §6, §7

[5] = tested on: Pseudomonas putida NCIMB 1960; assay: Microdilution broth MIC/MBC; assay type: cell-based; settings: 24 h at 25° C., dark
Procedure: as §1, §2, §3, §4, §5, §6, §7

Micrococcus sp. AD10 = assay: Microdilution broth MIC/MBC; assay type: cell-based; settings: 24 h at 25° C., dark
Procedure: as §1, §2, §3, §4, §5, §6, §7

[6] = tested on: Pseudomonas aeruginosa ATCC 10145; assay: Microdilution broth MIC/MBC; assay type: cell-based; settings: 24 h at 25° C., dark
Procedure: as §1, §2, §3, §4, §5, §6, §7

Aeromonas sp. CH34 = assay: Microdilution broth MIC/MBC; assay type: cell-based; settings: 24 h at 25° C., dark
Procedure: as §1, §2, §3, §4, §5, §6, §7

Vibrio sp. AE7 = assay: Microdilution broth MIC/MBC; assay type: cell-based; settings: 24 h at 25° C., dark
Procedure: as §1, §2, §3, §4, §5, §6, §7

Corynebacterium sp. CT15 = assay: Microdilution broth MIC/MBC; assay type: cell-based; settings: 24 h at 25° C., dark
Procedure: as §1, §2, §3, §4, §5, §6, §7

[7] = tested on: Vibrio parahaemolyticus AD19; assay: Microdilution broth MIC/MBC; assay type: cell-based; settings: 24 h at 25° C., dark
Procedure: as §1, §2, §3, §4, §5, §6, §7

Micrococcus sp. AE11 = assay: Microdilution broth MIC/MBC; assay type: cell-based; settings: 24 h at 25° C., dark
Procedure: as §1, §2, §3, §4, §5, §6, §7

[8] = tested on: Bacillus subtilis ATCC 10774; assay: Microdilution broth MIC/MBC; assay type: cell-based; settings: 24 h at 25° C., dark
Procedure: as §1, §2, §3, §4, §5, §6, §7

Vibrio sp. CH45 = assay: Microdilution broth MIC/MBC; assay type: cell-based; settings: 24 h at 25° C., dark
Procedure: as §1, §2, §3, §4, §5, §6, §7

Chlorella sp. = assay: Inhibition of planktonic microalgae duplication; assay type: cell-based; settings: after 96 hours of treatment
Procedure: This test was carried out by using the microalga Chlorella sp., it is a small (2-10 microns diameter) green single celled microalga with a spherical cell shape. This genus is capable of both autotrophic and heterotrophic growth which may contribute to its ability to rapidly overtake other algae in culture. In laboratory, Chlorella coltures are started by taking from the branchs, inoculates basis, about 10 ml of monospecific colture, and adding 700 ml of […] filtered sea-water, enriched with Walne colture medium and vitamins.
Flasks with algae are kept in a thermostatic room, at 20° C.±0,5; lighting is supplied by 30 watt fluorescent neon tubes and by a 18 watt Osram-fluora lamp, with a photoperiod 16:8 light:dark. Oxygenation is warranted by a continuous air flux in the flask, this is also a way to avoid cells sedimentation. Test was carried out in the thermostatic room, at 20° C., with a 16:8 light:dark cycle in glass test-tube. The tested product has been dissolved in the culture medium, at a double concentration respect to the final wanted. […] Test-tubes were aerated, and kept in thermostatic room for 96 hours; after this period of time an aliquot of each replicate for each concentration was taken, and cellular densities were counted using an haemocytometer.

[9] = Photo-degradability under daylight and UV; assay type: physicochemical; settings: 10 ppm in drinking water (pH 6,5-7,5)
Procedure: Similarly, the same behaviour is confirmed when evaluating the photo-degradability under daylight and UV (the irradiation test is carried out on a solution of 10 ppm in drinking water (pH 6,5-7,5)).

[10] = tested on: nauplii of Artemia salina; assay: Artemia efficacy test
Procedure: This efficacy test was carried out by using nauplii of Artemia salina (Crustacea: Anacostraca).
Cysts reactivation has been carried out 24 hours before the execution of tests. […] Beakers, hermetically closed and aerated with pre-filtered air (0,22 μm), were incubated for 24 hours at 25° C., without photoperiod. For the tests E3 developing stage nauplii were employed (24 hours after cysts reactivation). Nauplii were divided from not-opened cysts by exploiting their positive fototactism: a light beam is placed near the beaker, obtaining a considerable concentration of organisms, that can be taken by using a Pasteur pipette. The following MNB concentrations have been tested: 0-0.05-0.1-0.5-1-5-10 ppm (mg/L). These solutions have been prepared immediately before carrying out the tests using natural filtered (0.22 μm) sea water (NFSW). For tests, multiwell plates (25 wells) have been used, each well has a capacity of 4 ml. In the first column there was the control solution (water without product), and in the following the different concentrations in increasing order. In each well about 20-25 individuals were added, each concentration was repeated in four replicates. Multiwell plates, hermetically closed with parafilm and lid, were incubated at dark for 24-48 hours at 25° C. […] Larvae were considered dead when there was completely no movement for 10 seconds.
Mortality percentage was calculated as the mean of the four replicates for each concentration. Data were analysed by using the Probits method, in order to calculate the lethal concentration for the 50% of the population (LC50).

CC1(S(=O)(=O)O)CC(=O)c2ccccc2C1=O.NC(=O)c1cccnc1 (centres unmarked) [MNB, menadione nicotinamide bisulphite]
MBC [1]: 16 µg/mL | MIC [1]: 8 µg/mL | MBC [2]: 32 µg/mL | MIC [2]: 16 µg/mL | MBC [3]: >64 µg/mL | MIC [3]: >64 µg/mL | MBC [4]: 16 µg/mL | MIC [4]: 8 µg/mL | MBC (Vibrio sp. AD18): 32 µg/mL | MIC (Vibrio sp. AD18): 16 µg/mL | MBC [5]: >64 µg/mL | MIC [5]: >64 µg/mL | MBC (Micrococcus sp. AD10): 32 µg/mL | MIC (Micrococcus sp. AD10): 16 µg/mL | MBC [6]: >64 µg/mL | MIC [6]: >64 µg/mL | MBC (Aeromonas sp. CH34): 64 µg/mL | MIC (Aeromonas sp. CH34): 32 µg/mL | MBC (Vibrio sp. AE7): 64 µg/mL | MIC (Vibrio sp. AE7): 32 µg/mL | MBC (Corynebacterium sp. CT15): 16 µg/mL | MIC (Corynebacterium sp. CT15): 8 µg/mL | MBC [7]: 4 µg/mL | MIC [7]: 1 µg/mL | MBC (Micrococcus sp. AE11): 16 µg/mL | MIC (Micrococcus sp. AE11): 8 µg/mL | MBC [8]: 32 µg/mL | MIC [8]: 12 µg/mL | MBC (Vibrio sp. CH45): 16 µg/mL | MIC (Vibrio sp. CH45): 16 µg/mL | LC1 (Chlorella sp.): 0.002 mg/L | LC50 (Chlorella sp.): 0.055 µg/mL | Light exp. Tot Degr. [9]: 48 h | Light exp. ½ life [9]: 10 h | LC1 ([10]; 24 hours): 3.170 mg/L | LC50 ([10]; 24 hours): 7.625 µg/mL | LC1 ([10]; 48 hours): 0.548 mg/L | LC50 ([10]; 48 hours): 1.840 µg/mL
